Source: patent publication US11083725B2 (priority 2014, dated 2021)

Tested on: NHBE cells
Test: Biolog metabolic array: substrate use by NHBE cells with or without CA09 infection
Assay type: cell-based, human
Conditions: for Substrate use, 590 nm absorbance normalized to zero hour, 0 hr: Biolog PMM2, 0 hr; for Substrate use, 590 nm absorbance normalized to zero hour, 1 hr: Biolog PMM2, 1 hr; for Substrate use, 590 nm absorbance normalized to zero hour, 5 hr: Biolog PMM2, 5 hr; for Substrate use, 590 nm absorbance normalized to zero hour, 7 hr: Biolog PMM2, 7 hr
[1] = Control (uninfected) NHBE cells
[2] = Virus (CA09-infected, MOI 1) NHBE cells
[3] = Virus: CA09-infected NHBE cells, MOI 1, Biolog PMM2
[4] = Virus (CA09-infected NHBE cells, MOI 1)
[5] = Virus (CA09, MOI 1) infected NHBE cells

OC[C@H]1O[C@H](OC[C@H]2O[C@H](O[C@]3(CO)O[C@H](CO)[C@@H](O)[C@@H]3O)[C@H](O)[C@@H](O)[C@@H]2O)[C@H](O)[C@@H](O)[C@H]1O [D-Raffinose]
590 nm absorbance normalized to zero hour (substrate use), 0 hr [1]: 1.00 | 590 nm absorbance normalized to zero hour (substrate use), 1 hr [1]: 1.09 | 590 nm absorbance normalized to zero hour (substrate use), 2 hr [1]: 1.11 | 590 nm absorbance normalized to zero hour (substrate use), 3 hr [1]: 1.37 | 590 nm absorbance normalized to zero hour (substrate use), 4 hr [1]: 1.53 | 590 nm absorbance normalized to zero hour (substrate use), 6 hr [1]: 0.75 | 590 nm absorbance normalized to zero hour (substrate use), 8 hr [1]: 1.82 | 590 nm absorbance normalized to zero hour (substrate use), 9 hr [1]: 1.82 | 590 nm absorbance normalized to zero hour (substrate use), 10 hr [1]: 2.00 | 590 nm absorbance normalized to zero hour (substrate use), 11 hr [1]: 2.15 | Substrate use, 590 nm absorbance normalized to zero hour, 0 hr [1]: 1.00 | Substrate use, 590 nm absorbance normalized to zero hour, 1 hr [1]: 1.09 | Substrate use, 590 nm absorbance normalized to zero hour, 5 hr [1]: 1.75 | Substrate use, 590 nm absorbance normalized to zero hour, 7 hr [1]: 1.71 | 590 nm absorbance normalized to zero hour (substrate use), 0 hr [2]: 1.00 | 590 nm absorbance normalized to zero hour (substrate use), 1 hr [2]: 0.68 | 590 nm absorbance normalized to zero hour (substrate use), 2 hr [2]: 0.59 | 590 nm absorbance normalized to zero hour (substrate use), 3 hr [2]: 0.55 | 590 nm absorbance normalized to zero hour (substrate use), 4 hr [2]: 0.49 | 590 nm absorbance normalized to zero hour (substrate use), 5 hr [2]: 1.98 | 590 nm absorbance normalized to zero hour (substrate use), 6 hr [2]: 0.54 | 590 nm absorbance normalized to zero hour (substrate use), 7 hr [2]: 1.92 | 590 nm absorbance normalized to zero hour (substrate use), 8 hr [2]: 1.77 | 590 nm absorbance normalized to zero hour (substrate use), 9 hr [2]: 1.74 | 590 nm absorbance normalized to zero hour (substrate use), 10 hr [2]: 1.15 | 590 nm absorbance normalized to zero hour (substrate use), 11 hr [2]: 1.53 | 590 nm absorbance normalized to zero hour (substrate use), 0 hr [3]: 1.00 | 590 nm absorbance normalized to zero hour (substrate use), 1 hr [3]: 0.68 | 590 nm absorbance normalized to zero hour (substrate use), 2 hr [3]: 0.59 | 590 nm absorbance normalized to zero hour (substrate use), 3 hr [3]: 0.55 | 590 nm absorbance normalized to zero hour (substrate use), 4 hr [3]: 0.49 | 590 nm absorbance normalized to zero hour (substrate use), 5 hr [3]: 1.98 | 590 nm absorbance normalized to zero hour (substrate use), 6 hr [3]: 0.54 | 590 nm absorbance normalized to zero hour (substrate use), 7 hr [3]: 1.92 | 590 nm absorbance normalized to zero hour (substrate use), 8 hr [3]: 1.77 | 590 nm absorbance normalized to zero hour (substrate use), 9 hr [3]: 1.74 | 590 nm absorbance normalized to zero hour (substrate use), 10 hr [3]: 1.15 | 590 nm absorbance normalized to zero hour (substrate use), 11 hr [3]: 1.53

OC[C@H]1O[C@H](OC[C@H]2OC(O)(CO)[C@@H](O)[C@@H]2O)[C@H](O)[C@@H](O)[C@@H]1O (some centres unmarked) [Palatinose]
590 nm absorbance normalized to zero hour (substrate use), 0 hr [1]: 1.00 | 590 nm absorbance normalized to zero hour (substrate use), 1 hr [1]: 1.31 | 590 nm absorbance normalized to zero hour (substrate use), 2 hr [1]: 1.79 | 590 nm absorbance normalized to zero hour (substrate use), 3 hr [1]: 1.68 | 590 nm absorbance normalized to zero hour (substrate use), 4 hr [1]: 1.81 | 590 nm absorbance normalized to zero hour (substrate use), 6 hr [1]: 2.44 | 590 nm absorbance normalized to zero hour (substrate use), 8 hr [1]: 2.16 | 590 nm absorbance normalized to zero hour (substrate use), 9 hr [1]: 2.14 | 590 nm absorbance normalized to zero hour (substrate use), 10 hr [1]: 1.94 | 590 nm absorbance normalized to zero hour (substrate use), 11 hr [1]: 1.44 | Substrate use, 590 nm absorbance normalized to zero hour, 0 hr [1]: 1.00 | Substrate use, 590 nm absorbance normalized to zero hour, 1 hr [1]: 1.31 | Substrate use, 590 nm absorbance normalized to zero hour, 5 hr [1]: 2.10 | Substrate use, 590 nm absorbance normalized to zero hour, 7 hr [1]: 2.18 | 590 nm absorbance normalized to zero hour (substrate use), 0 hr [4]: 1.00 | 590 nm absorbance normalized to zero hour (substrate use), 1 hr [4]: 0.18 | 590 nm absorbance normalized to zero hour (substrate use), 2 hr [4]: 0.24 | 590 nm absorbance normalized to zero hour (substrate use), 3 hr [4]: 0.28 | 590 nm absorbance normalized to zero hour (substrate use), 4 hr [4]: 0.29 | 590 nm absorbance normalized to zero hour (substrate use), 5 hr [4]: 0.34 | 590 nm absorbance normalized to zero hour (substrate use), 6 hr [4]: 0.36 | 590 nm absorbance normalized to zero hour (substrate use), 7 hr [4]: 0.38 | 590 nm absorbance normalized to zero hour (substrate use), 8 hr [4]: 0.41 | 590 nm absorbance normalized to zero hour (substrate use), 9 hr [4]: 0.45 | 590 nm absorbance normalized to zero hour (substrate use), 10 hr [4]: 0.46 | 590 nm absorbance normalized to zero hour (substrate use), 11 hr [4]: 0.50 | 590 nm absorbance normalized to zero hour (substrate use), 0 hr [3]: 1.00 | 590 nm absorbance normalized to zero hour (substrate use), 1 hr [3]: 0.18 | 590 nm absorbance normalized to zero hour (substrate use), 2 hr [3]: 0.24 | 590 nm absorbance normalized to zero hour (substrate use), 3 hr [3]: 0.28 | 590 nm absorbance normalized to zero hour (substrate use), 4 hr [3]: 0.29 | 590 nm absorbance normalized to zero hour (substrate use), 5 hr [3]: 0.34 | 590 nm absorbance normalized to zero hour (substrate use), 6 hr [3]: 0.36 | 590 nm absorbance normalized to zero hour (substrate use), 7 hr [3]: 0.38 | 590 nm absorbance normalized to zero hour (substrate use), 8 hr [3]: 0.41 | 590 nm absorbance normalized to zero hour (substrate use), 9 hr [3]: 0.45 | 590 nm absorbance normalized to zero hour (substrate use), 10 hr [3]: 0.46 | 590 nm absorbance normalized to zero hour (substrate use), 11 hr [3]: 0.50

CC(=O)N[C@H]1C(O)O[C@H](CO)[C@@H](O)[C@@H]1O (stereo partly drawn) [N-Acetyl-D-Glucosamine]
590 nm absorbance normalized to zero hour (substrate use), 1 hr [1]: 0.19 | 590 nm absorbance normalized to zero hour (substrate use), 2 hr [1]: 0.27 | 590 nm absorbance normalized to zero hour (substrate use), 3 hr [1]: 0.32 | 590 nm absorbance normalized to zero hour (substrate use), 4 hr [1]: 0.34 | 590 nm absorbance normalized to zero hour (substrate use), 6 hr [1]: 0.32 | 590 nm absorbance normalized to zero hour (substrate use), 8 hr [1]: 0.48 | 590 nm absorbance normalized to zero hour (substrate use), 9 hr [1]: 0.50 | 590 nm absorbance normalized to zero hour (substrate use), 10 hr [1]: 0.45 | 590 nm absorbance normalized to zero hour (substrate use), 11 hr [1]: 0.44 | Substrate use, 590 nm absorbance normalized to zero hour, 1 hr [1]: 0.19 | Substrate use, 590 nm absorbance normalized to zero hour, 5 hr [1]: 0.40 | Substrate use, 590 nm absorbance normalized to zero hour, 7 hr [1]: 0.46 | Substrate use, 590 nm absorbance normalized to zero hour, 1 hr [5]: 2.25 | Substrate use, 590 nm absorbance normalized to zero hour, 5 hr [5]: 4.99 | Substrate use, 590 nm absorbance normalized to zero hour, 7 hr [5]: 5.67 | 590 nm absorbance normalized to zero hour (substrate use), 1 hr [2]: 2.25 | 590 nm absorbance normalized to zero hour (substrate use), 2 hr [2]: 3.27 | 590 nm absorbance normalized to zero hour (substrate use), 3 hr [2]: 3.85 | 590 nm absorbance normalized to zero hour (substrate use), 4 hr [2]: 4.12 | 590 nm absorbance normalized to zero hour (substrate use), 6 hr [2]: 5.27 | 590 nm absorbance normalized to zero hour (substrate use), 8 hr [2]: 6.03 | 590 nm absorbance normalized to zero hour (substrate use), 9 hr [2]: 6.65 | 590 nm absorbance normalized to zero hour (substrate use), 10 hr [2]: 6.45 | 590 nm absorbance normalized to zero hour (substrate use), 11 hr [2]: 5.53

OCC(O)CO [Glycerol]
590 nm absorbance normalized to zero hour (substrate use), 1 hr [1]: 1.36 | 590 nm absorbance normalized to zero hour (substrate use), 2 hr [1]: 1.42 | 590 nm absorbance normalized to zero hour (substrate use), 3 hr [1]: 1.19 | 590 nm absorbance normalized to zero hour (substrate use), 4 hr [1]: 1.18 | 590 nm absorbance normalized to zero hour (substrate use), 6 hr [1]: 0.68 | 590 nm absorbance normalized to zero hour (substrate use), 8 hr [1]: 1.04 | 590 nm absorbance normalized to zero hour (substrate use), 9 hr [1]: 1.08 | 590 nm absorbance normalized to zero hour (substrate use), 10 hr [1]: 1.04 | 590 nm absorbance normalized to zero hour (substrate use), 11 hr [1]: 1.08 | Substrate use, 590 nm absorbance normalized to zero hour, 1 hr [1]: 1.36 | Substrate use, 590 nm absorbance normalized to zero hour, 5 hr [1]: 1.27 | Substrate use, 590 nm absorbance normalized to zero hour, 7 hr [1]: 1.06 | Substrate use, 590 nm absorbance normalized to zero hour, 11 hr (Control (uninfected) NHBE cells, Biolog PMM2, 11 hr): 1.04 | Substrate use, 590 nm absorbance normalized to zero hour, 1 hr [5]: 1.04 | Substrate use, 590 nm absorbance normalized to zero hour, 2 hr (Virus (CA09, MOI 1) infected NHBE cells, Biolog PMM2, 2 hr): 1.04 | Substrate use, 590 nm absorbance normalized to zero hour, 3 hr (Virus (CA09, MOI 1) infected NHBE cells, Biolog PMM2, 3 hr): 1.04 | Substrate use, 590 nm absorbance normalized to zero hour, 4 hr (Virus (CA09, MOI 1) infected NHBE cells, Biolog PMM2, 4 hr): 1.04 | Substrate use, 590 nm absorbance normalized to zero hour, 5 hr [5]: 3.55 | Substrate use, 590 nm absorbance normalized to zero hour, 7 hr [5]: 3.91 | 590 nm absorbance normalized to zero hour (substrate use), 1 hr [2]: 2.05 | 590 nm absorbance normalized to zero hour (substrate use), 2 hr [2]: 2.67 | 590 nm absorbance normalized to zero hour (substrate use), 3 hr [2]: 3.09 | 590 nm absorbance normalized to zero hour (substrate use), 4 hr [2]: 3.24 | 590 nm absorbance normalized to zero hour (substrate use), 6 hr [2]: 3.71 | 590 nm absorbance normalized to zero hour (substrate use), 8 hr [2]: 4.11 | 590 nm absorbance normalized to zero hour (substrate use), 9 hr [2]: 4.51 | 590 nm absorbance normalized to zero hour (substrate use), 10 hr [2]: 4.63 | 590 nm absorbance normalized to zero hour (substrate use), 11 hr [2]: 5.09
